# From patent US9566312B2, “Cyclic peptides and use as medicines” (priority 2012, dated 2017)
# Read-outs that look alike come from different tables or passages of the source. Starred links: 1 amine or outer side, 2 acyl side, 3 side chain; linkers in the order of their positions; H or OH if unused. Non-standard residues stand in square brackets, D forms with d. Residues, ends and D or L forms follow the SMILES beside them. X12 = C[C@@H](CN1CCN(C2CCC2)CC1)[C@@H](C(=O)[*:2])N(C)[*:1]; X6 = C[C@@H](CN1CCN(C2COC2)CC1)[C@@H](C(=O)[*:2])N(C)[*:1]; X19 = COCCN1CCN(C[C@H](C)[C@@H](C(=O)[*:2])N(C)[*:1])CC1; NMe(dihydroBmt) = CCCC[C@@H](C)[C@@H](O)[C@H](NC)C(=O)O; X21 = CCN1CCN(C[C@@H](C)[C@@H](C(=O)[*:2])N(C)[*:1])CC1; X11 = CCN1CCN(C[C@H](C)[C@@H](C(=O)[*:2])N(C)[*:1])CC1; X14 = C[C@H](CN1CCN(C)CC1)[C@@H](C(=O)[*:2])N(C)[*:1]; X20 = C[C@H](CCCN1CCOCC1)[C@@H](C(=O)[*:2])N(C)[*:1]; MeBmt = C/C=C/C[C@@H](C)[C@@H](O)[C@H](NC)C(=O)O; X24 = C[C@H](CO)[C@@H](C(=O)[*:2])N(C)[*:1]; X15 = COCC(COC)[C@@H](C(=O)[*:2])N(C)[*:1]; NMeL = CN[C@@H](CC(C)C)C(=O)O; NMeV = CN[C@H](C(=O)O)C(C)C; dNMeA = CN[C@H](C)C(=O)O; Abu = CC[C@H](N)C(=O)O
# What was measured:
# [1] = target: organic anion transporting polypeptide 1B1 (OATP1B1) (Homo sapiens (Human), UniProt Q9Y6L6); test: OATP assay in CHO-OATP1B1 cells;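 also: inhibition of probe substrate uptake into the cells, ten minutes exposure, accumulated substrate read by fluorescence once cells were lysed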
# Chain of organic anion transporting polypeptide 1B1 (OATP1B1) (Q9Y6L6 whole entry): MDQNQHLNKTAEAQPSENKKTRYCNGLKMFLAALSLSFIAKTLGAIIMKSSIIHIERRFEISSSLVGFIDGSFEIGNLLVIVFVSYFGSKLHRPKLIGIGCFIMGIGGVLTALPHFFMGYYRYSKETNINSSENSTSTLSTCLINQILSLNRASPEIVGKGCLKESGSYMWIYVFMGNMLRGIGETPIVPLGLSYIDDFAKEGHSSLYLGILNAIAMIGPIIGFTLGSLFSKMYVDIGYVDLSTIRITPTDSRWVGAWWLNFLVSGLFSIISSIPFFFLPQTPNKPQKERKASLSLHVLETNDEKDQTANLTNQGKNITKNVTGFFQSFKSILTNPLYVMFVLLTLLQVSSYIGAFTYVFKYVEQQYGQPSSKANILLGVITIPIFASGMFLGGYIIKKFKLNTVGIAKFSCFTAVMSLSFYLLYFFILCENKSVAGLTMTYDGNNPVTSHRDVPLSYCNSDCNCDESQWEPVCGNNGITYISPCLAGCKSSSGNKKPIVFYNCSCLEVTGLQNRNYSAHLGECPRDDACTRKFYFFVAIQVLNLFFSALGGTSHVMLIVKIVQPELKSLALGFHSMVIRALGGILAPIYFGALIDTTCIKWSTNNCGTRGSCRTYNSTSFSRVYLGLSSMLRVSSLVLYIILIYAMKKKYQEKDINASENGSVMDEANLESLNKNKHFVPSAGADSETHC
# [2] = target: CypF (Homo sapiens (Human), UniProt P30405); test: Inhibitor binding to cyclophilin proteins by SPR, CypF; settings: 1:1 binding model
# Chain of CypF (P30405 30-207): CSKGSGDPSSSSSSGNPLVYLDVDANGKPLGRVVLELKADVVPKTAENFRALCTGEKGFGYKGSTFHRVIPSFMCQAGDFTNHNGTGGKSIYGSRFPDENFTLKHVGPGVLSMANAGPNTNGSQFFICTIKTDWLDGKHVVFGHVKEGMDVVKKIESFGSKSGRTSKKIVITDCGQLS
# Outline: (§1)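 Mono-biotinylated avi-tagged cyclophilins captured on a Biotin CAPture chip. Single-cycle kinetics at 50 μL/min, 1 min contacts, 10 min final dissociation, in 10 mM HEPES pH 7.4, 150 mM NaCl, 0.05% P20, 3% DMSO. kon, koff and KD from a 1:1 binding model.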
# [3] = system: peripheral blood mononuclear cells (PBMC); test: Anti-proliferative or immunosuppressive activity, BrdU incorporation in PHA-stimulated PBMC; format: cell-based; settings: PHA 3 μg/ml, 60 hour compound treatment; read-out: EMV PBMC IC50
# Outline: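 Fresh PBMCs from two donors, 30,000 per well in X-VIVO 15 medium, stimulated with 3 μg/ml PHA to drive T-cell proliferation. Proliferation measured as BrdU incorporation into DNA by BrdU ELISA.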
# [4] = target: cyclophilin A (CypA) (Homo sapiens (Human), UniProt P62937); test: Inhibitor binding to cyclophilin proteins by SPR, CypA; design: unit not given here; settings: 1:1 binding model;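 also: Single-cycle kinetics on a Biacore T200, compound injected at several concentrations for 1 min each at 50 µL/min, then 10 min dissociation, in HEPES pH 7.4 buffer with 3% DMSO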
# Chain of cyclophilin A (CypA) (P62937 whole entry): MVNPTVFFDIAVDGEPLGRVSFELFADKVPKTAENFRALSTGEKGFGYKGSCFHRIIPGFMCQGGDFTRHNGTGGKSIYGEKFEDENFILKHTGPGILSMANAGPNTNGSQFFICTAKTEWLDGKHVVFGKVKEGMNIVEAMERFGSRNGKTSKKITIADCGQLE
# [5] = target: CYP3A4 (Homo sapiens (Human), UniProt P08684); test: Time-dependent inhibition of CYP3A4;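 also: Two-step in vitro assay, kobs derived from residual CYP3A4 activity versus preincubation time per concentration, then kinact and KI by nonlinear fit of kobs against concentration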
# Chain of CYP3A4 (P08684 whole entry): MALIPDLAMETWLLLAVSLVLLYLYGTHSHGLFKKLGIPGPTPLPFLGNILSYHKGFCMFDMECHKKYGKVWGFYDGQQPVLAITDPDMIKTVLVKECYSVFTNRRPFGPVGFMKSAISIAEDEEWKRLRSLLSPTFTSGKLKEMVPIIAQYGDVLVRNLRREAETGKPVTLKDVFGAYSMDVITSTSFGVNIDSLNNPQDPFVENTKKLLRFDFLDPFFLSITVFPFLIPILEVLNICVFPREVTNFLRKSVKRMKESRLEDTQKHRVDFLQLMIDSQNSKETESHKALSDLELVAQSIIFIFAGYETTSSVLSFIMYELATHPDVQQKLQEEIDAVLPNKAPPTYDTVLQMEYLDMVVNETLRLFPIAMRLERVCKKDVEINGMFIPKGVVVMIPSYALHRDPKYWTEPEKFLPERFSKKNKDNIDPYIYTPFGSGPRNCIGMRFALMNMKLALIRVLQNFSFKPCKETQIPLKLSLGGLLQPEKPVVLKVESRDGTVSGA
# Protocol: Method 5: Measuring Time-Dependent Inhibition of CYP3A4
# The CYP3A4 time dependent inhibition potential of various inhibitors was determined by a two step in vitro assay. […] The inactivation rate constant (kobs) was obtained by plotting the activity remaining over pre-incubation time for each concentration of compound. The maximal inactivation rate (kinact) and the inactivation potency (KI) were calculated by non linear regression analysis of the inactivation rate constant (kobs) versus compound concentrations [I] curve according to the equation kobs=[kinact·[I]]/[KI+[I]]
# [6] = system: genotype 1b subgenomic HCV replicon in Huh7.5 cells; format: cell-based, hepatitis C virus; settings: read-out: RPLN-1b IC50
# Outline: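 Huh7.5 cells carrying genotype 1b subgenomic HCV replicon with renilla luciferase-neomycin reporter, in phenol red-free DMEM without G418. Luciferase measured after 72 h compound exposure relative to DMSO-treated cells; cytotoxicity (CC50) by Cell Titer-Glo.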
# [7] = target: cyclophilin B (CypB) (Homo sapiens (Human), UniProt P23284); test: Inhibitor binding to cyclophilin proteins by SPR, CypB; design: unit not given here; settings: 1:1 binding model
# Chain of cyclophilin B (CypB) (P23284 34-216): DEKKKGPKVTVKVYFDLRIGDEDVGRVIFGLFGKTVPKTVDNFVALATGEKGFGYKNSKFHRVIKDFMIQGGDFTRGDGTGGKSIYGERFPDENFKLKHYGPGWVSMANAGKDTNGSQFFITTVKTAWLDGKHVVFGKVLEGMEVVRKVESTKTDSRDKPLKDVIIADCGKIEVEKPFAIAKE
# Outline: as §1
# [8] = genotype 1b replicon, 72 h incubation
SMILES,IC50 [1] [µM],CypF Kd [2] [µM],IC50 [3] [µM],CypA Kd [4],Ki [5] [µM],"IC50 [6, 8] [µM]",CypB Kd [7],NIM TDI kinact/Ki ([5]; probe substrate midazolam) [M⁻¹ s⁻¹],IC50 [6] [µM],"NIM TDI, result in words ([5]; probe substrate midazolam)"
"C/C=C/C[C@@H](C)[C@@H](O)[C@H]1C(=O)N[C@@H](CC)C(=O)N(C)[C@H](C)C(=O)N(C)[C@@H]([C@@H](C)CN2CCN(C3COC3)CC2)C(=O)N[C@@H](C(C)C)C(=O)N(C)[C@@H](CC(C)C)C(=O)N[C@@H](C)C(=O)N[C@H](C)C(=O)N(C)[C@@H](CC(C)C)C(=O)N(C)[C@@H](CC(C)C)C(=O)N(C)[C@@H](C(C)C)C(=O)N1C [Compound 2.17.5, 3-[D-Ala]-4[(2S,3S)-2-Amino-3-methyl-4-(4-oxetan-3-yl-piperazin-1-yl)-butanoyl]-cyclosporin] (cyclo(A[dA][NMeL][NMeL][NMeV][MeBmt][Abu][dNMeA][X6]V[NMeL]))",1.8,0.0004,35.2,0.7,> 50,0.033,0.5,–,–,–
"C/C=C/C[C@@H](C)[C@@H](O)[C@H]1C(=O)N[C@@H](CC)C(=O)N(C)[C@H](C)C(=O)N(C)[C@@H]([C@@H](C)CN2CCN(C3CCC3)CC2)C(=O)N[C@@H](C(C)C)C(=O)N(C)[C@@H](CC(C)C)C(=O)N[C@@H](C)C(=O)N[C@H](C)C(=O)N(C)[C@@H](CC(C)C)C(=O)N(C)[C@@H](CC(C)C)C(=O)N(C)[C@@H](C(C)C)C(=O)N1C [Compound 2.17.3, 3-[D-Ala]-4[(2S,3S)-2-Amino-4-(4-cyclobutyl-piperazin-1-yl)-3-methyl-butanoyl]-cyclosporin] (cyclo(A[dA][NMeL][NMeL][NMeV][MeBmt][Abu][dNMeA][X12]V[NMeL]))",4,0.0003,6.7,0.5,> 50,0.031,0.4,–,–,–
"C/C=C/C[C@@H](C)[C@@H](O)[C@H]1C(=O)N[C@@H](CC)C(=O)N(C)[C@H](C)C(=O)N(C)[C@@H]([C@H](C)CCCN2CCOCC2)C(=O)N[C@@H](C(C)C)C(=O)N(C)[C@@H](CC(C)C)C(=O)N[C@@H](C)C(=O)N[C@H](C)C(=O)N(C)[C@@H](CC(C)C)C(=O)N(C)[C@@H](CC(C)C)C(=O)N(C)[C@@H](C(C)C)C(=O)N1C [Compound 2.19.1, 3-[D-Ala]-4-[(2S,3R)-3-methyl-2-(methylamino)-6-morpholinohexanoyl]-cyclosporin] (cyclo([MeBmt][Abu][dNMeA][X20]V[NMeL]A[dA][NMeL][NMeL][NMeV]))",6.9,0.0005,16.6,0.9,–,–,0.5,17,0.038,–
"C/C=C/C[C@@H](C)[C@@H](O)[C@H]1C(=O)N[C@@H](CC)C(=O)N(C)[C@H](C)C(=O)N(C)[C@@H]([C@H](C)CN2CCN(C)CC2)C(=O)N[C@@H](C(C)C)C(=O)N(C)[C@@H](CC(C)C)C(=O)N[C@@H](C)C(=O)N[C@H](C)C(=O)N(C)[C@@H](CC(C)C)C(=O)N(C)[C@@H](CC(C)C)C(=O)N(C)[C@@H](C(C)C)C(=O)N1C [Compound 2.5.29, 3-[D-Ala]-4-[(2S,3R)-3-methyl-2-(methylamino)-4-(4-methylpiperazin-1-yl)butanoyl]-cyclosporin] (cyclo(A[dA][NMeL][NMeL][NMeV][MeBmt][Abu][dNMeA][X14]V[NMeL]))",7.9,0.0006,12.2,1.5,> 50,0.056,0.7,–,–,–
"C/C=C/C[C@@H](C)[C@@H](O)[C@H]1C(=O)N[C@@H](CC)C(=O)N(C)[C@H](C)C(=O)N(C)[C@@H]([C@H](C)CN2CCN(CC)CC2)C(=O)N[C@@H](C(C)C)C(=O)N(C)[C@@H](CC(C)C)C(=O)N[C@@H](C)C(=O)N[C@H](C)C(=O)N(C)[C@@H](CC(C)C)C(=O)N(C)[C@@H](CC(C)C)C(=O)N(C)[C@@H](C(C)C)C(=O)N1C [Compound 2.5.13, 3-[D-Ala]-4[(2S,3R)-2-Amino-4-(4-ethyl-piperazin-1-yl)-butanoyl]-cyclosporin] (cyclo(A[dA][NMeL][NMeL][NMeV][MeBmt][Abu][dNMeA][X21]V[NMeL]))",4.56,0.0005,5.3,0.9,> 50,0.05,0.8,–,–,–
"C/C=C/C[C@@H](C)[C@@H](O)[C@H]1C(=O)N[C@@H](CC)C(=O)N(C)[C@H](C)C(=O)N(C)[C@@H]([C@@H](C)CN2CCN(CC)CC2)C(=O)N[C@@H](C(C)C)C(=O)N(C)[C@@H](CC(C)C)C(=O)N[C@@H](C)C(=O)N[C@H](C)C(=O)N(C)[C@@H](CC(C)C)C(=O)N(C)[C@@H](CC(C)C)C(=O)N(C)[C@@H](C(C)C)C(=O)N1C [Compound 2.17.2, 3-[D-Ala]-4[(2S,3S)-2-Amino-4-(4-ethyl-piperazin-1-yl)-3-methyl-butanoyl]-cyclosporin] (cyclo(A[dA][NMeL][NMeL][NMeV][MeBmt][Abu][dNMeA][X11]V[NMeL]))",5.1,0.0005,14.5,0.6,> 50,0.035,0.5,–,–,–
"C/C=C/C[C@@H](C)[C@@H](O)[C@H]1C(=O)N[C@@H](CC)C(=O)N(C)[C@H](C)C(=O)N(C)[C@@H](C(COC)COC)C(=O)N[C@@H](C(C)C)C(=O)N(C)[C@@H](CC(C)C)C(=O)N[C@@H](C)C(=O)N[C@H](C)C(=O)N(C)[C@@H](CC(C)C)C(=O)N(C)[C@@H](CC(C)C)C(=O)N(C)[C@@H](C(C)C)C(=O)N1C [Compound 2.11, 3-[D-Ala]-4-[(S)-4-methoxy-3-(methoxymethyl)-2-(methylamino)butanoyl]-cyclosporin] (cyclo(A[dA][NMeL][NMeL][NMeV][MeBmt][Abu][dNMeA][X15]V[NMeL]))",2.6,0.0012,7.9,1.9,> 50,0.058,1.3,–,–,–
"CCCC[C@@H](C)[C@@H](O)[C@H]1C(=O)N[C@@H](CC)C(=O)N(C)[C@H](C)C(=O)N(C)[C@@H]([C@@H](C)CN2CCN(CCOC)CC2)C(=O)N[C@@H](C(C)C)C(=O)N(C)[C@@H](CC(C)C)C(=O)N[C@@H](C)C(=O)N[C@H](C)C(=O)N(C)[C@@H](CC(C)C)C(=O)N(C)[C@@H](CC(C)C)C(=O)N(C)[C@@H](C(C)C)C(=O)N1C [Compound 2.17.6, 1-dihydro-3-[D-Ala]-4[(2S,3S)-2-Amino-4-[4-(2-methoxy-ethyl)-piperazin-1-yl]-3-methyl-butanoyl]-cyclosporin] (cyclo(A[dA][NMeL][NMeL][NMeV][NMe(dihydroBmt)][Abu][dNMeA][X19]V[NMeL]))",3.3,0.0005,14.6,0.9,> 50,0.02,0.6,–,–,–
"C/C=C/C[C@@H](C)[C@@H](O)[C@H]1C(=O)N[C@@H](CC)C(=O)N(C)[C@H](C)C(=O)N(C)[C@@H]([C@H](C)CO)C(=O)N[C@@H](C(C)C)C(=O)N(C)[C@@H](CC(C)C)C(=O)N[C@@H](C)C(=O)N[C@H](C)C(=O)N(C)[C@@H](CC(C)C)C(=O)N(C)[C@@H](CC(C)C)C(=O)N(C)[C@@H](C(C)C)C(=O)N1C [Compound 2.5.1, 3-[D-Ala]-4-[(2S,3S)-4-hydroxy-3-methyl-2-(methylamino)butanoyl]-cyclosporin] (cyclo(A[dA][NMeL][NMeL][NMeV][MeBmt][Abu][dNMeA][X24]V[NMeL]))",3.6,0.0022,6.8,4.8,–,0.4,3.5,–,–,No TDI
